Laboratory results: PubChem BioAssay AID266 (DTP/NCI, 2004)
Where “and” joins values, the source holds several entries; their conditions need not be identical. Equal entries are not always repeated. Records with an inconclusive call do not appear.

Tested on: Nude mice, LX-1 lung xenograft intrarenal, tumor weight T/C
Assay: NCI In Vivo Anticancer Drug Screen. Data for tumor model Human Lung LX-1 Xenograft (intrarenal inoculation) in NU/NU BALB/C (nude) mice
Conditions: endpoint: mean tumor weight change, higher = larger tumour
Description: The antitumor activity of compounds was measured in mice bearing transplantable tumors. Survival or tumor size were measured and the results are expressed as the measurement made in the treated group (T) divided by the measurement made in the vehicle treated control group (C). The tumor model used in this assay is Human Lung LX-1 Xenograft (intrarenal inoculation) in NU/NU BALB/C (nude) mice

[1] = dose: 50.0 mg/kg/injection, schedule: Q01DX010 (ip), vehicle: saline
[2] = dose: 50.0 mg/kg/injection, schedule: Q01DX010 (sc), vehicle: saline
[3] = dose: 100.0 mg/kg/injection, schedule: Q01DX010 (ip), vehicle: saline
[4] = dose: 100.0 mg/kg/injection, schedule: Q01DX010 (sc), vehicle: saline
[5] = dose: 166.66 mg/kg/injection, schedule: Q04DX003 (sc), vehicle: saline
[6] = dose: 200.0 mg/kg/injection, schedule: Q01DX010 (sc), vehicle: saline
[7] = dose: 333.33 mg/kg/injection, schedule: Q04DX003 (sc), vehicle: saline
[8] = dose: 400.0 mg/kg/injection, schedule: Q01DX010 (sc), vehicle: saline
[9] = dose: 666.65 mg/kg/injection, schedule: Q04DX003 (sc), vehicle: saline
[10] = dose: 50.0 mg/kg/injection, schedule: Q04DX003 (sc), vehicle: saline
[11] = dose: 100.0 mg/kg/injection, schedule: Q04DX003 (sc), vehicle: saline
[12] = dose: 200.0 mg/kg/injection, schedule: Q04DX003 (sc), vehicle: saline
[13] = dose: 300.0 mg/kg/injection, schedule: Q04DX003 (sc), vehicle: saline with Tween-80
[14] = dose: 600.0 mg/kg/injection, schedule: Q04DX003 (sc), vehicle: saline with Tween-80
[15] = dose: 1200.0 mg/kg/injection, schedule: Q04DX003 (sc), vehicle: saline with Tween-80
[16] = dose: 2400.0 mg/kg/injection, schedule: Q04DX003 (sc), vehicle: saline with Tween-80
[17] = dose: 100.0 mg/kg/injection, schedule: Q01DX010 (sc), vehicle: Klucel (hydroxypropylcellulose) (HPC)
[18] = dose: 200.0 mg/kg/injection, schedule: Q01DX010 (sc), vehicle: Klucel (hydroxypropylcellulose) (HPC)
[19] = dose: 50.0 mg/kg/injection, schedule: Q01DX010 (sc), vehicle: Klucel (hydroxypropylcellulose) (HPC)

In the case of `CNNCc1ccc(C(=O)NC(C)C)cc1`, the T/C [1] was -66 % of control, the T/C [2] was 2 % of control and 11 % of control and the T/C [3] was -100 % of control. The T/C [4] was 8 % of control, the T/C [5] was 5 % of control and the T/C [6] was -71 % of control. The T/C [7] was -38 % of control, the T/C [8] was -65 % of control and the T/C [9] was -14 % of control.
For `CNC(=O)O/N=C(\CN=[N+]=[N-])C(C)(C)C`, the T/C (dose: 1.25 mg/kg/injection, schedule: Q04DX003 (sc), vehicle: saline) was 73 % of control.
In the case of `NC(CCl)=NCC12CC3CC(CC(C3)C1)C2`, the T/C (dose: 18.75 mg/kg/injection, schedule: Q04DX003 (sc), vehicle: Klucel (hydroxypropylcellulose) (HPC)) was 157 % of control and the T/C (dose: 75.0 mg/kg/injection, schedule: Q04DX003 (sc), vehicle: Klucel (hydroxypropylcellulose) (HPC)) was 110 % of control.
In the case of `CC1(CO)C(O)CCC2(C)C1CCC1CC3CC12CCC3(O)CO` (configuration not stated), the T/C (dose: 50.0 mg/kg/injection, schedule: Q01DX010 (sc), vehicle: saline with Tween-80) was 86 % of control and the T/C (dose: 400.0 mg/kg/injection, schedule: Q01DX010 (sc), vehicle: saline with Tween-80) was 34 % of control.
In the case of `NC1=NC(=O)N2CC12` (configuration not stated), the T/C [10] was 101 % of control, the T/C [11] was 102 % of control and the T/C [12] was 108 % of control.
`CC[As](=O)(O)CC` was tested, and the T/C (dose: 25.0 mg/kg/injection, schedule: Q04DX003 (sc), vehicle: saline) was 77 % of control, the T/C [10] was 82 % of control and the T/C [11] was 51 % of control. For the same compound, the T/C [12] was 70 % of control.
`c1ccc2c(c1)[As]=c1ccccc1=[As]2` (configuration not stated) was tested, and the T/C (dose: 18.75 mg/kg/injection, schedule: Q04DX003 (sc), vehicle: saline) was 58 % of control, the T/C (dose: 37.5 mg/kg/injection, schedule: Q04DX003 (sc), vehicle: saline) was 46 % of control and the T/C (dose: 75.0 mg/kg/injection, schedule: Q04DX003 (sc), vehicle: saline) was 50 % of control. The T/C (dose: 150.0 mg/kg/injection, schedule: Q04DX003 (sc), vehicle: saline) was 40 % of control.
For `NC(=O)/C=C/C(=O)c1c(Cl)cccc1Cl`, the T/C (dose: 9.0 mg/kg/injection, schedule: Q04DX003 (sc), vehicle: saline with Tween-80) was 83 % of control and the T/C (dose: 18.0 mg/kg/injection, schedule: Q04DX003 (sc), vehicle: saline with Tween-80) was 79 % of control.
With `CC1CCC(NC(=O)N(CCCl)N=O)CC1` (configuration not stated) the T/C (dose: 3.13 mg/kg/injection, schedule: Q01DX010 (sc), vehicle: Klucel (hydroxypropylcellulose) (HPC)) was 67 % of control and the T/C (dose: 6.25 mg/kg/injection, schedule: Q01DX010 (sc), vehicle: Klucel (hydroxypropylcellulose) (HPC)) was 3 % of control.
For `Cc1c(-c2ccc(-c3ccccc3F)cc2)nc2ccc(F)cc2c1C(=O)O`, the T/C (dose: 6.9 mg/kg/injection, schedule: Q01DX009 (ip), vehicle: water) was 7 % of control and 13 % of control and 31 % of control, the T/C (dose: 19.2 mg/kg/injection, schedule: Q01DX009 (ip), vehicle: water) was 5 % of control and 14 % of control and 21 % of control and the T/C (dose: 32.0 mg/kg/injection, schedule: Q01DX009 (ip), vehicle: water) was 15 % of control and 17 % of control.
`N#CCCSC(=S)C1CCCC1=N` (configuration not stated) was tested, and the T/C [13] was 84 % of control, the T/C [14] was 79 % of control and the T/C [15] was 102 % of control. For the same compound, the T/C [16] was 91 % of control.
For `CNc1nc(N(C)C)nc(N(C)C)n1`, the T/C (dose: 30.0 mg/kg/injection, schedule: Q01DX010 (sc), vehicle: other) was 169 % of control and the T/C (dose: 60.0 mg/kg/injection, schedule: Q01DX010 (sc), vehicle: other) was 29 % of control.
`NCCCNCCSP(=O)(O)O` was tested, and the T/C [12] was 99 % of control, the T/C (dose: 400.0 mg/kg/injection, schedule: Q04DX003 (sc), vehicle: saline) was 78 % of control and the T/C (dose: 800.0 mg/kg/injection, schedule: Q04DX003 (sc), vehicle: saline) was 80 % of control.
`CN(C)N=Nc1ccc(S(N)(=O)=O)cc1` was tested, and the T/C [17] was -13 % of control, the T/C (dose: 100.0 mg/kg/injection, schedule: Q04DX003 (sc), vehicle: Klucel (hydroxypropylcellulose) (HPC)) was 38 % of control and 61 % of control and the T/C [18] was -72 % of control. For the same compound, the T/C (dose: 200.0 mg/kg/injection, schedule: Q04DX003 (sc), vehicle: Klucel (hydroxypropylcellulose) (HPC)) was 3 % of control and 11 % of control and the T/C (dose: 400.0 mg/kg/injection, schedule: Q01DX010 (sc), vehicle: Klucel (hydroxypropylcellulose) (HPC)) was -100 % of control.
In the case of `c1cc2n(n1)CCN2`, the T/C [1] was 107 % of control, the T/C [2] was 26 % of control and the T/C [3] was 70 % of control. The T/C [4] was 12 % of control, the T/C [5] was 170 % of control and the T/C [6] was -33 % of control. The T/C [7] was 150 % of control and the T/C [9] was 59 % of control.
With `FC(F)(F)c1nc2nc(Cl)c(Cl)nc2[nH]1` the T/C (dose: 75.0 mg/kg/injection, schedule: Q04DX003 (sc), vehicle: saline with Tween-80) was 116 % of control, the T/C (dose: 150.0 mg/kg/injection, schedule: Q04DX003 (sc), vehicle: saline with Tween-80) was 74 % of control and the T/C [13] was 68 % of control.
`O=c1cnn(C2OC(CO)C(O)C2O)c(=O)[nH]1` (configuration not stated) was tested, and the T/C [6] was 42 % of control, the T/C [8] was 46 % of control and the T/C (dose: 800.0 mg/kg/injection, schedule: Q01DX010 (sc), vehicle: saline) was 35 % of control.
`Cc1c(CNc2ccc(C(=O)NC(CC(=O)O)C(=O)O)cc2)ccc2nc(N)nc(N)c12` (configuration not stated) was tested, and the T/C (dose: 12.5 mg/kg/injection, schedule: Q04DX003 (sc), vehicle: saline with Tween-80) was 100 % of control, the T/C (dose: 25.0 mg/kg/injection, schedule: Q04DX003 (sc), vehicle: saline with Tween-80) was 71 % of control and the T/C (dose: 50.0 mg/kg/injection, schedule: Q04DX003 (sc), vehicle: saline with Tween-80) was 32 % of control.
For `COc1cccc2c1C(=O)c1c(O)c3c(c(O)c1C2=O)CC(O)(C(=O)CO)CC3OC1CC(N)C(O)C(C)O1` (configuration not stated), the T/C (dose: 50.0 mg/kg/injection, schedule: Q04DX003 (sc), vehicle: water) was 86 % of control, the T/C (dose: 100.0 mg/kg/injection, schedule: Q04DX003 (sc), vehicle: water) was 103 % of control and the T/C (dose: 200.0 mg/kg/injection, schedule: Q04DX003 (sc), vehicle: water) was 90 % of control. The T/C (dose: 400.0 mg/kg/injection, schedule: Q04DX003 (sc), vehicle: water) was 103 % of control.
With `COc1cc2cc(c1Cl)N(C)C(=O)C[C@H](OC(=O)[C@H](C)N(C)C(C)=O)[C@]1(C)O[C@H]1[C@H](C)[C@@H]1C[C@@](O)(NC(=O)O1)[C@H](OC)C=C/C=C(\C)C2` the T/C [19] was 72 % of control, the T/C [17] was 3 % of control and the T/C [18] was 1 % of control. The T/C (dose: 12.5 micrograms/kg/injection, schedule: Q01DX010 (sc), vehicle: Klucel (hydroxypropylcellulose) (HPC)) was 224 % of control, the T/C (dose: 25.0 micrograms/kg/injection, schedule: Q01DX010 (sc), vehicle: Klucel (hydroxypropylcellulose) (HPC)) was 77 % of control and the T/C (dose: 50.0 micrograms/kg/injection, schedule: Q01DX010 (sc), vehicle: Klucel (hydroxypropylcellulose) (HPC)) was 73 % of control. The T/C (dose: 100.0 micrograms/kg/injection, schedule: Q01DX010 (sc), vehicle: Klucel (hydroxypropylcellulose) (HPC)) was 32 % of control and the T/C (dose: 200.0 micrograms/kg/injection, schedule: Q01DX010 (sc), vehicle: Klucel (hydroxypropylcellulose) (HPC)) was 2 % of control.
`C/C(=C\c1ccccc1)[N+](=O)[O-]` was tested, and the T/C [19] was 96 % of control, the T/C [17] was 97 % of control and the T/C [18] was 15 % of control.
In the case of `CN(CO)c1nc(N(C)CO)nc(N(C)CO)n1`, the T/C (dose: 6.25 mg/kg/injection, schedule: Q01DX010 (sc), vehicle: saline) was 71 % of control, the T/C (dose: 25.0 mg/kg/injection, schedule: Q01DX010 (sc), vehicle: saline) was 100 % of control and the T/C [2] was 122 % of control.
`C[C@]12CCC(=O)C(O)=C1CC[C@@H]1[C@@H]2CC[C@]2(C)C(=O)CC[C@@H]12` was tested, and the T/C (dose: 150.0 mg/kg/injection, schedule: Q04DX003 (ip), vehicle: Klucel (hydroxypropylcellulose) (HPC)) was 61 % of control, the T/C (dose: 300.0 mg/kg/injection, schedule: Q04DX003 (ip), vehicle: Klucel (hydroxypropylcellulose) (HPC)) was 99 % of control and the T/C (dose: 600.0 mg/kg/injection, schedule: Q04DX003 (ip), vehicle: Klucel (hydroxypropylcellulose) (HPC)) was 89 % of control.
With `CC(C#N)(C#N)N=Nc1ccc(Cl)cc1Cl` the T/C [14] was 124 % of control, the T/C [15] was 86 % of control and the T/C [16] was 102 % of control.
